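Exposure lasted 48 hours, with cells grown in 96-well plates and compounds tested at five concentrations. GI50 = concentration required for 50% inhibition of growth.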 The source made the active and inactive calls. Rule as the data show it: active = GI50 up to about 1.1 µM and inactive = higher.
What was measured:
Test in all cases: NCI tumour cell line growth inhibition, 48 h
786-0 = system: 786-0
A498 = system: A498
A549 = system: A549
ACHN = system: ACHN
BT-549 = system: BT-549
CAKI-1 = system: CAKI-1
CCRF-CEM = system: CCRF-CEM
COLO 205 = system: COLO 205
DU-145 = system: DU-145
EKVX = system: EKVX
HCT-116 = system: HCT-116
HCT-15 = system: HCT-15
HL-60 = system: HL-60
HOP-62 = system: HOP-62
HOP-92 = system: HOP-92
HT-29 = system: HT-29
Hs-578T = system: Hs-578T
IGROV-1 = system: IGROV-1
K562 = system: K562
KM12 = system: KM12
LOX IMVI = system: LOX IMVI
M14 = system: M14
MCF7 = system: MCF7
MDA-MB-231 = system: MDA-MB-231
MDA-MB-435 = system: MDA-MB-435
MDA-N = system: MDA-N
MOLT-4 = system: MOLT-4
Malme-3M = system: Malme-3M
NCI-H226 = system: NCI-H226
NCI-H23 = system: NCI-H23
NCI-H460 = system: NCI-H460
NCI-H522 = system: NCI-H522
NCI/ADR-RES = system: NCI/ADR-RES
OVCAR-3 = system: OVCAR-3
OVCAR-4 = system: OVCAR-4
OVCAR-5 = system: OVCAR-5
OVCAR-8 = system: OVCAR-8
PC-3 = system: PC-3
RPMI-8226 = system: RPMI-8226
RXF 393 = system: RXF 393
SF-268 = system: SF-268
SF-295 = system: SF-295
SF-539 = system: SF-539
SK-MEL-28 = system: SK-MEL-28
SK-MEL-2 = system: SK-MEL-2
SK-MEL-5 = system: SK-MEL-5
SK-OV-3 = system: SK-OV-3
SN12C = system: SN12C
SNB-19 = system: SNB-19
SNB-75 = system: SNB-75
SR = system: SR
SW-620 = system: SW-620
T47D = system: T47D
TK-10 = system: TK-10
U-251 = system: U-251
UACC-257 = system: UACC-257
UACC-62 = system: UACC-62
UO-31 = system: UO-31
HCC 2998 = system: HCC 2998

CN(C)CCCn1c2ccccc2c2cnccc21
GI50 (786-0): 27.7 µM (inactive)
GI50 (A498): 38.5 µM (inactive)
GI50 (A549): 33.6 µM (inactive)
GI50 (ACHN): 33.8 µM (inactive)
GI50 (BT-549): 80.4 µM (inactive)
GI50 (CAKI-1): 38.7 µM (inactive)
GI50 (CCRF-CEM): 45.7 µM (inactive)
GI50 (COLO 205): 14.6 µM (inactive)
GI50 (DU-145): 43.9 µM (inactive)
GI50 (EKVX): 36.1 µM (inactive)
GI50 (HCT-116): 19.7 µM (inactive)
GI50 (HCT-15): 43.7 µM
GI50 (HL-60): 23.6 µM (inactive)
GI50 (HOP-62): 60.4 µM (inactive)
GI50 (HOP-92): 94.6 µM (inactive)
GI50 (HT-29): 25.1 µM (inactive)
GI50 (Hs-578T): 42.7 µM (inactive)
GI50 (IGROV-1): 64.7 µM (inactive)
GI50 (K562): 26.2 µM (inactive)
GI50 (KM12): 43.2 µM (inactive)
GI50 (LOX IMVI): 24.2 µM (inactive)
GI50 (M14): 16.6 µM (inactive)
GI50 (MCF7): 35.2 µM (inactive)
GI50 (MDA-MB-231): 30.8 µM (inactive)
GI50 (MDA-MB-435): 28.3 µM (inactive)
GI50 (MDA-N): 25.2 µM (inactive)
GI50 (MOLT-4): 24.4 µM (inactive)
GI50 (Malme-3M): 28.6 µM (inactive)
GI50 (NCI-H226): 24.1 µM (inactive)
GI50 (NCI-H23): 39.5 µM (inactive)
GI50 (NCI-H460): 23.9 µM (inactive)
GI50 (NCI-H522): 23.8 µM (inactive)
GI50 (NCI/ADR-RES): 36.1 µM (inactive)
GI50 (OVCAR-3): 42.9 µM (inactive)
GI50 (OVCAR-4): 39.6 µM (inactive)
GI50 (OVCAR-5): 38.4 µM (inactive)
GI50 (OVCAR-8): 55.3 µM (inactive)
GI50 (PC-3): 32.3 µM (inactive)
GI50 (RPMI-8226): 26.7 µM (inactive)
GI50 (RXF 393): 57.4 µM (inactive)
GI50 (SF-268): 50.7 µM (inactive)
GI50 (SF-295): 46.5 µM (inactive)
GI50 (SF-539): 20.6 µM (inactive)
GI50 (SK-MEL-28): 48.9 µM (inactive)
GI50 (SK-MEL-2): 45.5 µM (inactive)
GI50 (SK-MEL-5): 19.7 µM (inactive)
GI50 (SK-OV-3): 66.2 µM (inactive)
GI50 (SN12C): 17.1 µM (inactive)
GI50 (SNB-19): 44.9 µM (inactive)
GI50 (SNB-75): 66.1 µM (inactive)
GI50 (SR): 19.2 µM (inactive)
GI50 (SW-620): 26.4 µM (inactive)
GI50 (T47D): 70.8 µM (inactive)
GI50 (TK-10): 26.8 µM (inactive)
GI50 (U-251): 39.1 µM (inactive)
GI50 (UACC-257): 18.7 µM (inactive)
GI50 (UACC-62): 40.4 µM (inactive)
GI50 (UO-31): 17.5 µM (inactive)

COC(c1ccc(C(C)(C)C)cc1)(c1ccc(C(C)(C)C)cc1)c1ccc(C(C)(C)C)cc1
GI50 (786-0): > 100 µM (inactive)
GI50 (A498): > 100 µM (inactive)
GI50 (A549): > 100 µM (inactive)
GI50 (ACHN): > 100 µM (inactive)
GI50 (BT-549): > 100 µM (inactive)
GI50 (CAKI-1): > 100 µM (inactive)
GI50 (CCRF-CEM): > 100 µM (inactive)
GI50 (COLO 205): > 100 µM (inactive)
GI50 (DU-145): > 100 µM (inactive)
GI50 (EKVX): > 100 µM (inactive)
GI50 (HCC 2998): > 100 µM (inactive)
GI50 (HCT-116): > 100 µM (inactive)
GI50 (HCT-15): > 100 µM
GI50 (HL-60): > 100 µM (inactive)
GI50 (HOP-62): > 100 µM (inactive)
GI50 (HT-29): > 100 µM (inactive)
GI50 (Hs-578T): > 100 µM (inactive)
GI50 (IGROV-1): > 100 µM (inactive)
GI50 (K562): > 100 µM (inactive)
GI50 (KM12): > 100 µM (inactive)
GI50 (LOX IMVI): > 100 µM (inactive)
GI50 (M14): 70.5 µM (inactive)
GI50 (MCF7): > 100 µM (inactive)
GI50 (MDA-MB-231): > 100 µM (inactive)
GI50 (MDA-MB-435): > 100 µM (inactive)
GI50 (MDA-N): > 100 µM (inactive)
GI50 (MOLT-4): > 100 µM (inactive)
GI50 (Malme-3M): > 100 µM (inactive)
GI50 (NCI-H226): > 100 µM (inactive)
GI50 (NCI-H23): > 100 µM (inactive)
GI50 (NCI-H460): > 100 µM (inactive)
GI50 (NCI-H522): > 100 µM (inactive)
GI50 (NCI/ADR-RES): > 100 µM (inactive)
GI50 (OVCAR-3): > 100 µM (inactive)
GI50 (OVCAR-4): > 100 µM (inactive)
GI50 (OVCAR-5): > 100 µM (inactive)
GI50 (OVCAR-8): > 100 µM (inactive)
GI50 (PC-3): > 100 µM (inactive)
GI50 (RPMI-8226): > 100 µM (inactive)
GI50 (SF-268): > 100 µM (inactive)
GI50 (SF-295): > 100 µM (inactive)
GI50 (SF-539): > 100 µM (inactive)
GI50 (SK-MEL-28): > 100 µM (inactive)
GI50 (SK-MEL-2): > 100 µM (inactive)
GI50 (SK-MEL-5): > 100 µM (inactive)
GI50 (SN12C): > 100 µM (inactive)
GI50 (SNB-19): > 100 µM (inactive)
GI50 (SNB-75): > 100 µM (inactive)
GI50 (SR): > 100 µM (inactive)
GI50 (SW-620): > 100 µM (inactive)
GI50 (T47D): > 100 µM (inactive)
GI50 (TK-10): > 100 µM (inactive)
GI50 (U-251): > 100 µM (inactive)
GI50 (UACC-62): > 100 µM (inactive)
GI50 (UO-31): > 100 µM (inactive)

Source: ChEMBL document CHEMBL1201862, “PubChem BioAssay data set” (2004)
